This is an account of results in US20120190751A1, “COMPOUNDS FOR TREATMENTS OF INFLAMMATION” (ANA-MAR AB, priority 2009, published 2012).

Structures can show the parent of a compound that is named as a salt.

In the first experiment the test system is rat synoviocytes. Briefly: IL-6 release from LPS-stimulated rat synoviocytes. The class given is cell-based. Conditions: 1 μM 5-HT + LPS 50 ng/ml; test substance 0.1, 1 or 10 μM; 72 hours; FIG. 7A. As to the method: Pannus from the inflamed knee of rats with antigen-induced arthritis (AIA) (see description of this model below; Andersson, S. E et al., (1998), J. Rheumatology 25: 1772-1777) was isolated three to five days after challenge, stored in PBS supplemented with 100 U/ml Penicillin-Streptomycin (PEST, Invitrogen Corporation) and 2.5 μg/ml Fungizone (Amphotericin B, Invitrogen) until it was further processed within a couple of hours. The PBS was discarded and the tissue cut in small pieces followed by digestion in a collagenase solution (400 U/ml; type 1 CLS-1, Worthington) for 3 hours at 37° C., 5% CO2. The suspension was filtered through a nylon mesh (70 μm), washed with tissue culture medium (RPMI-1640 with L-glutamine, Invitrogen, supplemented with 10% fetal bovine serum (FBS) and 100 U/ml PEST and 2.5 μg/ml Fungizone) and centrifuged (257 g). The cells were resuspended in tissue culture medium and seeded in cell culture flasks (T25, TPP). After overnight culture, nonadherent cells were removed by exchanging the medium, the cells were incubated at 37° C., 5% CO2, the medium was exchanged every third day until confluence was reached (7-10 days). The culture consisted of a mixed cell population with the principal constituents being fibroblasts and macrophages (Andersson, S. E. et al. (2000), Eur. J. Pharm. Sci 9: 333-343).
The cells were counted and reseeded at a density of 10000 cells/0.2 ml in 96-well cell culture plates (Nunc). After overnight culture the cells were stimulated with 50 ng/ml Lipopolysaccharide (LPS, E. coli 055:B5, Sigma) with simultaneous addition of 0.1, 1 and 10 μM N-(2-chloro-3,4-dimethoxybenzylideneamino)guanidine and 1 μM of 5-HT2 receptor agonists (triplicates). The cells were incubated for 72 hours after which the supernatants were collected and analyzed for IL-6 (OptEIA™ Set Rat IL-6). The effect of treatment on cell viability was determined using the cell proliferation reagent, WST-1 (Roche Diagnostics).
Inflamed knee joints of rats with antigen-induced arthritis (AIA) were dissected four days after intra-articular challenge with antigen. Freshly isolated pannus tissue was collected in phosphate-buffered saline (PBS) supplemented with 100 U/ml penicillin, streptomycin (PEST, Invitrogen) and 2.5 μg/ml Fungizone (Amphotericin B, Invitrogen), finely minced with a pair of scissors and digested with 400 U/ml collagenase (type 1 CLS-1, Worthington) in RPMI 1640 (Gibco) supplemented with PEST and fungizone (2.5 μg/ml) for 3 hours. The cell suspension was filtered through a 70 μm nylon mesh and the cells collected by centrifugation at 257×g, 10 min. The cells were resuspended in RPMI 1640 supplemented with 10% FBS (Gibco), PEST and fungizone (culture medium), plated in T25 flasks (TPP Cat#90026). After overnight incubation nonadherent cells were removed and the culture medium was replaced every third day until the cells approached confluency (normally achieved within 7-10 days). At near-confluency, the cells were washed with PBS and harvested by trypsination. After washing in PBS the cells were resuspended in culture medium and seeded at 10.000 cells/well/0.2 ml in 96 well plates (Nunc cat#167008). After overnight culture the culture medium was replaced with fresh medium and 50 ng/ml LPS (Sigma, L6529) together with different concentrations of 5-HT, 5-HT2 receptor agonists and/or antagonists and N-(2-chloro-3,4-dimethoxybenzylideneamino)guanidine. The cells were incubated for 72 hours after which the supernatants were collected and analyzed for IL-6 (BD OptEIA™ Set). The effect of treatment on cell viability was determined using the cell proliferation reagent, WST-1 (Roche Diagnostics). In another experiment rat synoviocytes were incubated with 50 ng/ml LPS for 2 or 22 hours were after the levels of 5-HT was analysed in the cell culture medium using a Serotonin ELISA kit (IBL International, RE59121). We also incubated rat synoviocytes with 5-HT (10 μM) and measured the gene expression of 5-HT2B and 5-HT2C.
As to `CC(C)c1cc(-c2ccc(F)c3ccccc23)nc(N)n1` [RS-127445], the “IL-6 release induced by 5-HT and LPS” value is on record as “clearly reduced the IL-6 release”.

For the compound `Cc1cc2c(cc1Cl)N(C(=O)Nc1ccc(Oc3cccnc3C)nc1)CC2` [SB 242084, 6-chloro-5-methyl-1-[6-(-methylpyridin-3-yloxy)pyridin-3-ylcarbomyl]indoline], the “IL-6 release induced by 5-HT and LPS” value was “clearly reduced the IL-6 release”.

The experiment is the same for the next values; noted with them: 1 μM agonist in the presence of LPS 50 ng/ml; 72 hours.
As to `CC(N)Cc1c[nH]c2ccc(OCc3cccs3)cc12` (stereo not drawn) [BW 723C86], the “IL-6 release on agonist stimulation” value was “induces a response in IL-6 production”.

Consider `NCCc1c[nH]c2ccc(O)cc12` [Example 5-HT, 5-Hydroxytryptamine], for which the “IL-6 release on agonist stimulation” value is listed as “clear increase in IL-6 release”.

The next experiment concerns antigen-induced arthritis.
Assay: not given
The conditions noted are these: Andersson et al. 2000; cited from earlier work.
As to `CN(Cc1cnc2nc(N)nc(N)c2n1)c1ccc(C(=O)N[C@@H](CCC(=O)O)C(=O)O)cc1` [methotrexate], the “effect in the AIA model (literature)” value is on record as “anti-arthritic effect”.

The target in a further experiment is 5HT2B receptor (Homo sapiens, UniProt P41595).
5HT2B receptor, sequence (P41595 whole entry): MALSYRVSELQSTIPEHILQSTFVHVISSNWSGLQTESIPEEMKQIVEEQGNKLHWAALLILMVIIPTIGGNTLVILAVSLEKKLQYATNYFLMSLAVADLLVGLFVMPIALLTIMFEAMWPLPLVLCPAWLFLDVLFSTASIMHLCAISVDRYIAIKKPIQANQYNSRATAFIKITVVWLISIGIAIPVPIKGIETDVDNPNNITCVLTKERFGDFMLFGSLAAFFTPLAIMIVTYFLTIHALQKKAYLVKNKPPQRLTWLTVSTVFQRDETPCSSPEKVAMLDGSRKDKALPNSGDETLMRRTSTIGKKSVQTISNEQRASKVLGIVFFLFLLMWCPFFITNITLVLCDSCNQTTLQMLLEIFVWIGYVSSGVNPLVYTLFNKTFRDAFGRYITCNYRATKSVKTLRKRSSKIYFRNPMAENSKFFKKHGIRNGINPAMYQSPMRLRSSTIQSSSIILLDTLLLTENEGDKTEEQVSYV
Assay: not given
The conditions noted are these: 5HT2B receptor antagonists, Table 1; cited from earlier work.
Turning to `CN1CCC2CN3CCc4cccc(c43)C2C1` (single isomer, unassigned; (+)) [SDZ SER-082, (+)-cis-4,5,7a,8,9,10,11,11a-octahydro-7H-10-methylindolo[1,7-bc][2,6]-naphthyridine], the Affinity is listed as 6.7 pKi.

As for `Cc1cc([N+](=O)[O-])c(N2CCN(Cc3ccccc3)CC2)cc1N` [EGIS-7625, 1-benzyl-4-[(2-nitro-4-methyl-5-amino)-phenyl]-piperazine], the Affinity is given as 9.0 pKi.

On to `CC(O)C(C)OC(=O)C1CC2c3cccc4[nH]cc(c34)CC2N(C)C1` (stereo not drawn) [LY86057], for which the Affinity is on record as 7.9 pKi.

Regarding `OC(c1ccccc1)C1CCN(CCc2ccccc2)CC1` (stereo not drawn) [MDL-11,939, α-phenyl-1-(2-phenylethyl)-4-piperidinemethanol], the Affinity is given as 5.5 pKi.

Take `COc1cc(OC)c(C(=O)CCCCN2CCC3(CC2)NC(=O)NC3=O)cc1NS(=O)(=O)c1ccc(C(F)(F)F)cc1` [RS-102221]: the Affinity is 6.0-6.1 pKi.

In the case of `CC(C)c1cc(-c2ccc(F)c3ccccc23)nc(N)n1` [RS-127445-190], the Affinity is given as 9.5 pKi.

Consider `Cn1ccc2cc(NC(=O)Nc3cccnc3)ccc21` [SB 200646, N-(1-Methyl-1H-indol-5-yl)-N′-3-pyridinylurea], for which the Affinity is reported as 7.4 pKi.

In the case of `Cn1ccc2cc3c(cc21)CCN3C(=O)Nc1cccnc1` [SB 206553, 5-methyl-1-(3-pyridylcarbamoyl)-1,2,3,5-tetrahydrolpyrrolo[2,3-f]indole], the Affinity is recorded as 7.6-8.5 pKi.

As to `Cc1cc2c(cc1Cl)N(C(=O)Nc1cccc3ncccc13)CC2` [SB 215505, 6-chloro-5-methyl-1-(5-quinolylcarbamoyl)indoline], the Affinity is 8.3 pKi.

As to `CSc1cc2c(cc1C(F)(F)F)N(C(=O)Nc1cccnc1)CC2` [SB 221284, 5-(methylthio)-1-(3-pyridylcarbamoyl-6-trifluoromethyl)indoline], the Affinity is 8.6 pKi.

As for `Cc1nc(-c2ccc(-c3ccc(C(=O)N4CCc5cc6c(cc54)C4(CCN(C)CC4)CO6)cc3)c(C)c2)no1` [SB 224289, 1′-methyl-5-[[2′-methyl-4′-(5-methyl-1,2,4-oxadiazol-3-yl)biphenyl-4-yl]carbonyl]-2,3,6,7-tetrahydrospiro[furo[2,3-f]indole-3,4′-piperidine hydrochloride], the Affinity is listed as 5.9 pKi.

In the case of `COc1cc2c(cc1C(F)(F)F)N(C(=O)Nc1cc(F)cc(-c3cccnc3)c1)CC2` [SB 228357, 1-5[-fluoro-3-(3-pyridyl)phenyl-carbamoyl]-5-methoxy-6-trifuoromethylindoline], the Affinity is 8.0-8.1 pKi.

On to `COc1ccc2cccc(CCNC(C)=O)c2c1` [agomelatine, N-[2-(7-methoxynaphthalen-1-yl)ethyl]acetamide], for which the Affinity is 6.6 pKi.

Take `CC(C)n1cc2c3c(cccc31)[C@H]1CC(C(=O)NC3CCCCC3)CN(C)[C@@H]1C2` (stereo partly drawn) [amesergide, N-Cyclohexyl-1-isopropyl-6-methylergoline-8-carboxamide]: the Affinity is 8.0 pKi.

Regarding `CN1CCc2cccc3c2C1Cc1ccc(O)c(O)c1-3` (stereo not drawn) [apomorphine, 5,6,6a,7-Tetrahydro-6-methyl-4H-dibenzo[de,g]quinolin-10,11-diol], the Affinity is 6.9 pKi.

With `CC(C)C[C@H]1C(=O)N2CCC[C@H]2[C@]2(O)O[C@](NC(=O)[C@@H]3C=C4c5cccc6[nH]c(Br)c(c56)C[C@H]4N(C)C3)(C(C)C)C(=O)N12` [bromocriptine], the Affinity is 7.3 pKi.

For `NCCC(Oc1ccc(C(F)(F)F)cc1)c1ccccc1` (stereo not drawn) [norfluoxetine], the Affinity is reported as 5.3 pKi.

With `CCCCN1CCC(CNC(=O)c2c3n(c4ccccc24)CCCO3)CC1` [piboserod, N-((1-Butyl-4-piperidyl)-methyl)-3,4-dihydro-2H-(1,3)oxazino(3,2-a)-indole-10-carboxamide], the Affinity is reported as 6.6 pKi.

In the case of `c1cnc(N2CCN(Cc3ccc4c(c3)OCO4)CC2)nc1` [piribedil, 2-[4-(1,3-benzodioxol-5-ylmethyl)piperazin-1-yl]pyrimidine], the Affinity is recorded as 5.9 pKi.

For the compound `Cc1nc2sccn2c(=O)c1CCN1CCC(=C(c2ccc(F)cc2)c2ccc(F)cc2)CC1` [ritanserin, 4-[2-[4-[bis(4-fluorophenyl)methylidene]-1-piperidyl]ethyl]-3-methyl-9-thia-2,6-diazabicyclo[4.3.0]nona-1,3,7-trien-5-one], the Affinity was 8.7-9.2 pKi.

Turning to `Oc1ccc2[nH]cc(CCCCN3CC=C(c4ccccc4)CC3)c2c1` [roxindole, 3-[4-(4-phenyl-3,6-dihydro-2H-pyridin-1-yl)butyl]-1H-indol-5-ol], the Affinity is 7.5 pKi.

In the case of `COc1cccc(CCc2ccccc2OCC(CN(C)C)OC(=O)CCC(=O)O)c1` (stereo not drawn) [sarpogrelate, 4-[1-dimethylamino-3-[2-[2-(3-methoxyphenyl)ethyl]phenoxy]-propan-2-yl]oxy-4-oxo-butanoic acid], the Affinity is reported as 6.6 pKi.

Regarding `O=C(CCCN1CCC2(CC1)C(=O)NCN2c1ccccc1)c1ccc(F)cc1` [spiperone, 8-[4-(4-fluorophenyl)-4-oxo-butyl]-1-phenyl-1,3,8-triazaspiro[4.5]decan-4-one], the Affinity is listed as 5.9-6.5 pKi.

Turning to `O=C1NCN(c2ccccc2)C12CCN(CC1COc3ccccc3O1)CC2` (stereo not drawn) [spiroxatrine, 8-(7,10-dioxabicyclo[4.4.0]deca-1,3,5-trien-8-ylmethyl)-4-phenyl-2,4,8-triazaspiro[4.5]decan-1-one], the Affinity is 6.3-6.8 pKi.

On to `CCN(CC)C(=O)N[C@H]1C[C@@H]2c3cccc4[nH]cc(c34)C[C@H]2N(C)C1` [terguride, N,N-diethyl-N′-[(8α)-6-methylergolin-8-yl]urea], for which the Affinity was 8.2 pKi.

The experiment is the same for the next values; noted with them: cited from earlier work.
`CC(O)C(C)OC(=O)[C@@H]1C[C@@H]2c3cccc4c3c(cn4C(C)C)C[C@H]2N(C)C1.O=C(O)/C=C\C(=O)O` (stereo partly drawn) [LY53857, 6-Methyl-1-(1-methylethyl)ergoline-8β-carboxylic acid 2-hydroxy-1-methylpropyl ester maleate salt]: the Affinity is listed as 8.2 pKi.

Take `CC(C)c1cc(-c2ccc(F)c3ccccc23)nc(N)n1` [RS-127445]: the Affinity is given as 9.0 pKi.

On to `Cc1cc2c(cc1Cl)N(C(=O)Nc1ccc(Oc3cccnc3C)nc1)CC2` [SB 242084, 6-chloro-5-methyl-1-[6-(-methylpyridin-3-yloxy)pyridin-3-ylcarbomyl]indoline], for which the Affinity is on record as 6.8-7.0 pKi.
